SMILES strings stand for the structures.

Our source for the IC50 values is patent publication US9981916B2 (Genentech, Inc., priority 2013, dated 2018).

The assay has as its target T1, RORc ligand binding domain (Homo sapiens, UniProt P51449).
T1 construct: host or cells: E. coli
T1 sequence (P51449 269-508 limits assumed): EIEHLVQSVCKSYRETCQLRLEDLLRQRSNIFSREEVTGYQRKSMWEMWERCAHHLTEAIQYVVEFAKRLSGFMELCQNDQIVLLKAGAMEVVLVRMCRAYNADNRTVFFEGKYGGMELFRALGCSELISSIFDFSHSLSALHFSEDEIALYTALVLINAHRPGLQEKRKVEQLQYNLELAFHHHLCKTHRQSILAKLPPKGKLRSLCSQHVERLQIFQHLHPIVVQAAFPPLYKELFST
The assay is described as follows: In vitro RORc ligand binding assay (25-[3H]hydroxycholesterol displacement, filter binding). The note with it: 6 nM 25-[3H]hydroxycholesterol, 0.6 ug/mL RORc receptor, 3 h at 25° C. Put shortly:
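Compounds in 5% DMSO, either dose-response or screened at 1 and 10 uM, competed with 6 nM 25-[3H]hydroxycholesterol for 0.6 ug/mL RORc over 3 h at 25° C (HEPES pH 7.4, NaCl, MgCl2, DTT, BSA buffer). Bound tracer was filter-harvested and counted; nonspecific binding came from 1 uM 25-hydroxycholesterol.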
Consider `CCNC(=O)N(C)[C@@]12CC[C@@H](c3cc(-c4c(F)cccc4F)nnc31)C2(C)C` [Example 285, 1-((5R,8R)-3-(2,6-difluorophenyl)-9,9-dimethyl-5,6,7,8-tetrahydro-5,8-methanocinnolin-8-yl)-3-ethyl-1-methylurea], for which the IC50 (in general, the midpoint of a concentration-inhibition curve) came to 2070 nM. The molecule `CN([C@@]12CC[C@@H](c3cc(-c4c(F)cccc4F)nnc31)C2(C)C)S(C)(=O)=O` [Example 286, N-((5R,8R)-3-(2,6-difluorophenyl)-9,9-dimethyl-5,6,7,8-tetrahydro-5,8-methanocinnolin-8-yl)-N-methylmethanesulfonamide] yielded an IC50 of 219 nM. This IC50 is about 9.5-fold lower than that of the molecule before. In turn, `CC1(C)[C@H]2CC[C@]1(c1ccn(CCC#N)n1)c1nnc(-c3c(F)cccc3F)cc12` [Example 287] had a concentration for half-maximal inhibition (IC50) of 623 nM. For the molecule `CCNC(=O)N(CC)C[C@@]12CC[C@@H](c3cc(-c4c(F)cccc4F)nnc31)C2(C)C` [Example 288, 1-(((5R,8S)-3-(2,6-difluorophenyl)-9,9-dimethyl-5,6,7,8-tetrahydro-5,8-methanocinnolin-8-yl)methyl)-1,3-diethylurea], the IC50 was 21 nM.

Molecule `CC(=O)N(CCO)C[C@@]12CC[C@@H](c3cc(-c4c(F)cccc4F)nnc31)C2(C)C` [Example 289, N-(((5R,8S)-3-(2,6-difluorophenyl)-9,9-dimethyl-5,6,7,8-tetrahydro-5,8-methanocinnolin-8-yl)methyl)-N-(2-hydroxyethyl)acetamide] showed an IC50 of 258 nM. Take `CC(=O)OCCN(C[C@@]12CC[C@@H](c3cc(-c4c(F)cccc4F)nnc31)C2(C)C)C(C)=O` [Example 290, 2-(N-(((5R,8S)-3-(2,6-difluorophenyl)-9,9-dimethyl-5,6,7,8-tetrahydro-5,8-methanocinnolin-8-yl)methyl)acetamido)ethyl acetate]: the IC50 is 121 nM.

`CC1(C)[C@H]2CC[C@]1(CNCC(F)F)c1nnc(-c3c(F)cccc3F)cc12` [Example 291, N-(((5R,8S)-3-(2,6-difluorophenyl)-9,9-dimethyl-5,6,7,8-tetrahydro-5,8-methanocinnolin-8-yl)methyl)-2,2-difluoroethanamine] came in with a half-maximal inhibitory concentration (IC50) of 149 nM. The IC50 values of the last two molecules are within 1.5-fold of each other.

In turn, `CCOC(=O)N(CC(F)F)C[C@@]12CC[C@@H](c3cc(-c4c(F)cccc4F)nnc31)C2(C)C` [Example 292, ethyl (2,2-difluoroethyl)(((5R,8S)-3-(2,6-difluorophenyl)-9,9-dimethyl-5,6,7,8-tetrahydro-5,8-methanocinnolin-8-yl)methyl)carbamate] gave an IC50 of 7 nM. The molecule `CCNC(=O)N(CC(F)F)C[C@@]12CC[C@@H](c3cc(-c4c(F)cccc4F)nnc31)C2(C)C` [Example 293, 1-(2,2-difluoroethyl)-1-(((5R,8S)-3-(2,6-difluorophenyl)-9,9-dimethyl-5,6,7,8-tetrahydro-5,8-methanocinnolin-8-yl)methyl)-3-ethylurea] registered a 50% inhibitory concentration (IC50) of 42 nM. `C[C@@H]1COC(=O)N1C[C@@]12CC[C@@H](c3cc(-c4c(F)cccc4F)nnc31)C2(C)C` [Example 294, (R)-3-(((5R,8S)-3-(2,6-difluorophenyl)-9,9-dimethyl-5,6,7,8-tetrahydro-5,8-methanocinnolin-8-yl)methyl)-4-methyloxazolidin-2-one]: the IC50 was 103 nM. This IC50 is about 2.5-fold higher than that of the molecule before. For the molecule `C[C@H]1COC(=O)N1C[C@@]12CC[C@@H](c3cc(-c4c(F)cccc4F)nnc31)C2(C)C` [Example 295, (S)-3-(((5R,8S)-3-(2,6-difluorophenyl)-9,9-dimethyl-5,6,7,8-tetrahydro-5,8-methanocinnolin-8-yl)methyl)-4-methyloxazolidin-2-one], the IC50 turned out to be 1110 nM. The result for `CCN(C[C@@]12CC[C@@H](c3cc(-c4c(F)cccc4F)nnc31)C2(C)C)c1nnc(CO)o1` [Example 296, (5-((((5R,8S)-3-(2,6-difluorophenyl)-9,9-dimethyl-5,6,7,8-tetrahydro-5,8-methanocinnolin-8-yl)methyl)(ethyl)amino)-1,3,4-oxadiazol-2-yl)methanol] reads 22 nM.

Turning to `CC1(C)[C@H]2CC[C@]1(CNCCO)c1nnc(-c3c(F)cccc3F)cc12` [Example 297, 2-((((5R,8S)-3-(2,6-difluorophenyl)-9,9-dimethyl-5,6,7,8-tetrahydro-5,8-methanocinnolin-8-yl)methyl)amino)ethanol], the IC50 was 2420 nM. The result for `CC(=O)NCC(=O)N(CCO)C[C@@]12CC[C@@H](c3cc(-c4c(F)cccc4F)nnc31)C2(C)C` [Example 298, 2-acetamido-N-(((5R,8S)-3-(2,6-difluorophenyl)-9,9-dimethyl-5,6,7,8-tetrahydro-5,8-methanocinnolin-8-yl)methyl)-N-(2-hydroxyethyl)acetamide] reads 705 nM.

For `CN(C(=O)OCCO)[C@@]12CC[C@@H](c3cc(-c4c(F)cccc4F)nnc31)C2(C)C` [Example 299, 2-hydroxyethyl ((5R,8R)-3-(2,6-difluorophenyl)-9,9-dimethyl-5,6,7,8-tetrahydro-5,8-methanocinnolin-8-yl)(methyl)carbamate], the IC50 stood at 1480 nM. On to `CC(C)(O)[C@@]12CC[C@@H](c3cc(-c4c(F)cccc4F)nnc31)C2(C)C` [Example 300, 2-((5R,8R)-3-(2,6-difluorophenyl)-9,9-dimethyl-5,6,7,8-tetrahydro-5,8-methanocinnolin-8-yl)propan-2-ol], for which the IC50 came out at 28 nM. The result for `CCN(C[C@@]12CC[C@@H](c3cc(-c4c(F)cccc4F)nnc31)C2(C)C)c1cccc(=O)[nH]1` [Example 301, 6-((((5R,8S)-3-(2,6-difluorophenyl)-9,9-dimethyl-5,6,7,8-tetrahydro-5,8-methanocinnolin-8-yl)methyl)(ethyl)amino) pyridin-2(1H)-one] reads 12 nM; that for `CCN(C[C@@]12CC[C@@H](c3cc(-c4c(F)cccc4F)nnc31)C2(C)C)c1nccc(=O)[nH]1` [Example 302, 2-((((5R,8S)-3-(2,6-difluorophenyl)-9,9-dimethyl-5,6,7,8-tetrahydro-5,8-methanocinnolin-8-yl)methyl)(ethyl)amino) pyrimidin-4(3H)-one], 108 nM. `CCN(C[C@@]12CC[C@@H](c3cc(-c4c(F)cccc4F)nnc31)C2(C)C)c1nnc(C(F)(F)F)o1` [Example 303, N-(((5R,8S)-3-(2,6-difluorophenyl)-9,9-dimethyl-5,6,7,8-tetrahydro-5,8-methanocinnolin-8-yl)methyl)-N-ethyl-5-(trifluoromethyl)-1,3,4-oxadiazol-2-amine] came in with a concentration for half-maximal inhibition (IC50) of 10 nM. For `CCN(CC(N)=O)C[C@@]12CC[C@@H](c3cc(-c4c(F)cccc4F)nnc31)C2(C)C` [Example 304, 2-((((5R,8S)-3-(2,6-difluorophenyl)-9,9-dimethyl-5,6,7,8-tetrahydro-5,8-methanocinnolin-8-yl)methyl)(ethyl)amino) acetamide], the concentration for half-maximal inhibition (IC50) was 56 nM.

For the molecule `CC1(C)[C@H]2CC[C@]1(CN(CC(N)=O)CC(F)F)c1nnc(-c3c(F)cccc3F)cc12` [Example 305, 2-((2,2-difluoroethyl)(((5R,8S)-3-(2,6-difluorophenyl)-9,9-dimethyl-5,6,7,8-tetrahydro-5,8-methanocinnolin-8-yl)methyl)amino) acetamide], the half-inhibitory concentration (IC50) worked out at 437 nM. As for `CN(CC(N)=O)[C@@]12CC[C@@H](c3cc(-c4c(F)cccc4F)nnc31)C2(C)C` [Example 306, 2-(((5R,8R)-3-(2,6-difluorophenyl)-9,9-dimethyl-5,6,7,8-tetrahydro-5,8-methanocinnolin-8-yl)(methyl)amino) acetamide], the IC50 is 920 nM. This IC50 lies about 2.1-fold higher than the previous one.
